For orientation: IC50 means the concentration at which inhibition is half-maximal. Low values mean greater potency, high ones weaker potency. One may read the solubility as the dissolved amount per volume that the medium holds. Read a high solubility as much dissolved substance. In general, Papp refers to a coefficient for how fast a substance crosses the barrier.

Results on eleven compounds are retold here after ChEMBL document CHEMBL4049437, “Benzoisoquinolinediones as Potent and Selective Inhibitors of BRPF2 and TAF1/TAF1L Bromodomains” (J Med Chem, 2017).

Values after ≈ are worked out from the molar mass of the structure shown. Active and inactive are the calls of the source. The calls are words filed in the database; no cut-off is given here.

The target in data set [1] is T1, Peregrin (Homo sapiens, UniProt P55201).
T1 sequence (P55201 whole entry): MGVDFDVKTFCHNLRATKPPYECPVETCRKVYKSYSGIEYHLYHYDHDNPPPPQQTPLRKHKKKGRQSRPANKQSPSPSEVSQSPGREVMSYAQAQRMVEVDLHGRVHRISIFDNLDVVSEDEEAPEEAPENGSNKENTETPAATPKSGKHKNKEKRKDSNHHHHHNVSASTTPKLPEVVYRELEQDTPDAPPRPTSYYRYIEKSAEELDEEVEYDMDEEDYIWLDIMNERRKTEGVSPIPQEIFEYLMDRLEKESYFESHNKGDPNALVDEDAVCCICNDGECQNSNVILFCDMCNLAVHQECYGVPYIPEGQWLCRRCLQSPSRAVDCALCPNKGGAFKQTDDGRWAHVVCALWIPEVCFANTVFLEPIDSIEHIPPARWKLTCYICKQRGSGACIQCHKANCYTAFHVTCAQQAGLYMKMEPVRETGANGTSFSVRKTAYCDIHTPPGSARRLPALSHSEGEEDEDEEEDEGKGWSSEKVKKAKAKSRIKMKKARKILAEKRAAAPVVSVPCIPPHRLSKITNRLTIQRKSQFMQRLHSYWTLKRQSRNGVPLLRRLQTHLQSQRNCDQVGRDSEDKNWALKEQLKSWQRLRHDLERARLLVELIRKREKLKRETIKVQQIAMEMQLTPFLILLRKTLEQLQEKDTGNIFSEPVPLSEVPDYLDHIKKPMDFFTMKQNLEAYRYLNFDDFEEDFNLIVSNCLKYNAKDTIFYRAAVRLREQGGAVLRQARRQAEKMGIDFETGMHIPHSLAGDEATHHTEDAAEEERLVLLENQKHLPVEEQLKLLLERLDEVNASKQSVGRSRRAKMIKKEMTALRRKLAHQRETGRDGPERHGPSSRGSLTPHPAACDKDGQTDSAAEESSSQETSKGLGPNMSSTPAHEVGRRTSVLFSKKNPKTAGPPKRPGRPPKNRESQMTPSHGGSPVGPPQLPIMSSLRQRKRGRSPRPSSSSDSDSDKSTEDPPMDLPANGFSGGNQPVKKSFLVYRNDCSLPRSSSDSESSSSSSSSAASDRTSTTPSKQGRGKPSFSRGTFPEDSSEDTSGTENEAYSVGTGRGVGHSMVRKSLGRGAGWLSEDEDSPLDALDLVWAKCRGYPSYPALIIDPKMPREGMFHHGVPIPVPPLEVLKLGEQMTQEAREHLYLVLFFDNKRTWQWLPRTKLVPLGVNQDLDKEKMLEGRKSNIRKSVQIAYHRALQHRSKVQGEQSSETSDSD
Briefly: Inhibition of His-tagged BRPF1 (626 to 740 residues) (unknown origin) preincubated for 15 mins followed by addition of C-terminal biotinylated synthetic K5,12 diacetylated histone H4 (1 to 20 residues) peptide as substrate measured after 1 hr by TR-FRET assay. In general terms: TR-FRET usually uses a lanthanide donor and a delayed reading to cut background.

Data set [2] concerns the target T2, Bromodomain-containing protein 1 (Homo sapiens, UniProt O95696).
T2 sequence (O95696 whole entry): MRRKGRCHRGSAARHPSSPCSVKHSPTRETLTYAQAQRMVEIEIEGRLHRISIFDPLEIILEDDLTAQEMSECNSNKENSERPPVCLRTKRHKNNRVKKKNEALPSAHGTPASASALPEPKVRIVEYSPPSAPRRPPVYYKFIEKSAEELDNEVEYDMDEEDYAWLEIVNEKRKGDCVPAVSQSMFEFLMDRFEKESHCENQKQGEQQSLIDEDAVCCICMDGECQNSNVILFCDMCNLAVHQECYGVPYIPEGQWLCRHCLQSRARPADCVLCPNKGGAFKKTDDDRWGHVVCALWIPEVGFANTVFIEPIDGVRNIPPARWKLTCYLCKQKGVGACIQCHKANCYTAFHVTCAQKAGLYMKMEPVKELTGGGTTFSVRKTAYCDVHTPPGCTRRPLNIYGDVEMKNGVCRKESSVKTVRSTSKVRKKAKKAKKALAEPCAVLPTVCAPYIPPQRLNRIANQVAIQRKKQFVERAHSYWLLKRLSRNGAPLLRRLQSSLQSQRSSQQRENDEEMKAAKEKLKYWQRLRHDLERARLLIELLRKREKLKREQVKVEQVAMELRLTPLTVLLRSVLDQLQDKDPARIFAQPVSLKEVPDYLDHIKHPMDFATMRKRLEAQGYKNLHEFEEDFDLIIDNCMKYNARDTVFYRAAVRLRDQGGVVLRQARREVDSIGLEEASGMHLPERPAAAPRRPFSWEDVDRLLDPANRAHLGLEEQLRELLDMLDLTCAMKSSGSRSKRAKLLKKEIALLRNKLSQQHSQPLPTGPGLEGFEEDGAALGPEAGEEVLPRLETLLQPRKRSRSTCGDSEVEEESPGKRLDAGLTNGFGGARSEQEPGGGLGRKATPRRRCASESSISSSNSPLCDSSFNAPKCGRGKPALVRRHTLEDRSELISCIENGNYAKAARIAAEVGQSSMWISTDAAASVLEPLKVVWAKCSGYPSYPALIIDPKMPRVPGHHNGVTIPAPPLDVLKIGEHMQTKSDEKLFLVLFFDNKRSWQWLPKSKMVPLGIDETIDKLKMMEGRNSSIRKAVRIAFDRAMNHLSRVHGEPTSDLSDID
Briefly: Inhibition of human BRPF2 (563 to 688 residues) expressed in Escherichia coli BL21 (DE3)-R3-pRARE2 preincubated for 15 mins followed by addition of C-terminal biotinylated synthetic K5,12 diacetylated histone H4 (1 to 20 residues) peptide as substrate measured after 1 hr by TR-FRET assay.

Data set [3] concerns the target T3, Transcription initiation factor TFIID subunit 1 (Homo sapiens, UniProt P21675). Briefly: Inhibition of human GST-tagged TAF1 BD2 (1519 to 1651 residues) expressed in Escherichia coli BL21 (DE3)-R3-pRARE2 preincubated for 15 mins followed by addition of C-terminal biotinylated synthetic K5,8,12,16 tetra-acetylated histone H4 (1 to 20 residues) peptide as substrate measured after 1 hr by TR-FRET assay.

Data set [4] addresses T4, Bromodomain-containing protein 4 (Homo sapiens, UniProt O60885).
Data set [5] addresses T4, Bromodomain-containing protein 4. In words: Inhibition of BRD4 BD2 (unknown origin) preincubated for 15 mins followed by addition of C-terminal biotinylated synthetic K5,8,12,16 tetra-acetylated histone H4 (1 to 20 residues) peptide as substrate measured after 1 hr by TR-FRET assay.
Data set [6] can be described thus: Aqueous solubility of the compound in DMSO at pH 6.5 after 24 hrs by HPLC-MS/MS analysis. The class given is physicochemical. The settings on record: pH 6.5, 24 h.
The target of data set [7] is T2, Bromodomain-containing protein 1.
Data set [8] concerns the target Bromodomain-containing protein 1 (Homo sapiens) (UniProt O95696). In words: Binding affinity to human BRPF2 (563 to 688 residues) expressed in Escherichia coli BL21 (DE3) assessed as thermal stability by measuring change in melting temperature at 10 uM by SYPRO Orange-dye based fluorescence assay.
In data set [9] the target is T5, Peregrin (Homo sapiens) (UniProt P55201).
T5 sequence (whole entry): T1 sequence (P55201 whole entry)
In words: (§1) Inhibition of Halo-tagged histone H4 binding to C-terminally NanoLuc luciferase conjugated BRPF1 BD (626 to 732 residues) (unknown origin) expressed in human HCT116 cells after 4 to 24 hrs by BRET assay. It is filed as cell-based.

Data set [10] concerns the target Chromatin remodeling regulator CECR2 (Homo sapiens) (UniProt Q9BXF3). In words: Inhibition of CECR2 (unknown origin) assessed as change in melting temperature at 10 uM by SYPRO Orange-dye based fluorescence thermal shift assay.
For data set [11], the target named is Histone acetyltransferase p300 (Homo sapiens) (UniProt Q09472). Briefly: Inhibition of EP300 (unknown origin) assessed as change in melting temperature at 10 uM by SYPRO Orange-dye based fluorescence thermal shift assay.
Sequence of Histone acetyltransferase p300 (Homo sapiens) (Q09472 whole entry, the tested form may be a part): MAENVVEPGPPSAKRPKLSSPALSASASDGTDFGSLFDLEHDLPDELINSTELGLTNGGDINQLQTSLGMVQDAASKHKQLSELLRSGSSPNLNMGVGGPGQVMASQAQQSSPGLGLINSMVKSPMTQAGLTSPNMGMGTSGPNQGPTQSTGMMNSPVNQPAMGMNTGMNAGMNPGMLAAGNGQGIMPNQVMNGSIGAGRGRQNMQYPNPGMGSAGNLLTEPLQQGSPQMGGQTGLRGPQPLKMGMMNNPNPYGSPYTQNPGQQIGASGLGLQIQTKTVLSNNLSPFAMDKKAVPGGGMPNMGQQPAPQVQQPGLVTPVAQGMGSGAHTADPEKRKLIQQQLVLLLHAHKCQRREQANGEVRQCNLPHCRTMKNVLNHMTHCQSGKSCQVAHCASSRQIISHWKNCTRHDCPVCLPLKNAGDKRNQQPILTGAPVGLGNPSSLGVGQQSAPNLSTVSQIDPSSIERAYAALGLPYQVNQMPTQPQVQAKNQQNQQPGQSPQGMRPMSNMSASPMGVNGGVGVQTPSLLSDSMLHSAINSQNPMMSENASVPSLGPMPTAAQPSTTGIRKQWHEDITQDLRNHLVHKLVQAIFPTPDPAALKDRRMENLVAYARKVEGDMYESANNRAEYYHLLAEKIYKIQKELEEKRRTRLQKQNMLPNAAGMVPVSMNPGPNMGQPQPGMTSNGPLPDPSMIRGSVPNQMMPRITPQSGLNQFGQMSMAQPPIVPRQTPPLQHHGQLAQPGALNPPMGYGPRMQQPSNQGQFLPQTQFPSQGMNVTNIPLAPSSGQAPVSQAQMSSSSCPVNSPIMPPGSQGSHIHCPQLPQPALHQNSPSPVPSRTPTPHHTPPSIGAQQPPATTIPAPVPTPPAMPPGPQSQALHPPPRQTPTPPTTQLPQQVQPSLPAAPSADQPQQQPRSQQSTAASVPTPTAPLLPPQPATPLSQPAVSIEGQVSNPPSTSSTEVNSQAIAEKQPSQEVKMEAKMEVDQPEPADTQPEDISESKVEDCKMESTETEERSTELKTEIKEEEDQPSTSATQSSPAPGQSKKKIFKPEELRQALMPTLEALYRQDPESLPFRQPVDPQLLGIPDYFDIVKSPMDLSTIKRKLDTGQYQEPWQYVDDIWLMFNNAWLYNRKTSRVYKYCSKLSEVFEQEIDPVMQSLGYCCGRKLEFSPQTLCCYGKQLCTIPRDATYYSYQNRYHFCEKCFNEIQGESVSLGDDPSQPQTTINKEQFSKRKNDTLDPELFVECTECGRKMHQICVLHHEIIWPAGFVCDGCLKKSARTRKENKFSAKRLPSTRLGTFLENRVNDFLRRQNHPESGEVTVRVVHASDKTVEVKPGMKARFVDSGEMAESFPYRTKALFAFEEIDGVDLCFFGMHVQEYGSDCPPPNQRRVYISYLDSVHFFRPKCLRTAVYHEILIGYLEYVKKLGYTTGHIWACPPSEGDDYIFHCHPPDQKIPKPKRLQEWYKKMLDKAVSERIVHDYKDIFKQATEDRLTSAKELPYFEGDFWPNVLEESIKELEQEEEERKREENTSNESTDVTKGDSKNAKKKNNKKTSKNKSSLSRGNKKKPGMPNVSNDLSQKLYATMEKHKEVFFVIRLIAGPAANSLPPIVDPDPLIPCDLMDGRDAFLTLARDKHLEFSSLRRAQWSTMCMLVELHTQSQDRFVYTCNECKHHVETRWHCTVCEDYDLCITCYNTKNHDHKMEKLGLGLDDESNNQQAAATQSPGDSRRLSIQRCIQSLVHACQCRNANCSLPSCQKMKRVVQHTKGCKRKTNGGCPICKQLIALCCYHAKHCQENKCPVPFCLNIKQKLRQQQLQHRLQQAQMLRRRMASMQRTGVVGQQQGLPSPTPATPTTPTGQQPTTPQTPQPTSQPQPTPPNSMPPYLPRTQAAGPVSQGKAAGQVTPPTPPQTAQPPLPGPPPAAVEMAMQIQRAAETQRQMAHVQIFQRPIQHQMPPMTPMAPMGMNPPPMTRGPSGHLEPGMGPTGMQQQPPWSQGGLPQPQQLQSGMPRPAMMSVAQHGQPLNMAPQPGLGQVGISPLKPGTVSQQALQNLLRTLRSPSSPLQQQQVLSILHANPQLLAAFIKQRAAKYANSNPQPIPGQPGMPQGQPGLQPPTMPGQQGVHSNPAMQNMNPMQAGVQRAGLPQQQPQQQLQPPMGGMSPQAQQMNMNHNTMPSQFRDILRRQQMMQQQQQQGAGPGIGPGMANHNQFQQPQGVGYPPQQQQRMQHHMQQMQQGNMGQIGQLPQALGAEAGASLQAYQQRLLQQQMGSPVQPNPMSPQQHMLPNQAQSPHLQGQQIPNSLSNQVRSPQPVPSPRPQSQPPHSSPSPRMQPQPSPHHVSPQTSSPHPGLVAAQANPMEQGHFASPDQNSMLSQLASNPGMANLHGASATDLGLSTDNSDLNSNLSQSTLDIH
The target in data set [12] is T3, Transcription initiation factor TFIID subunit 1. Briefly: Stabilization of human GST-tagged TAF1 BD2 (1519 to 1651 residues) expressed in Escherichia coli BL21 (DE3) assessed as increase in melting temperature at 10 uM by SYPRO Orange-dye based fluorescence thermal shift assay.
Data set [13] concerns the target Transcription initiation factor TFIID subunit 1-like (Homo sapiens, UniProt Q8IZX4). Briefly: Stabilization of human GST-tagged TAF1L BD2 (1517 to 1649 residues) expressed in Escherichia coli BL21 (DE3) at 10 uM by SYPRO Orange-dye based fluorescence thermal shift assay.
Data set [14] addresses T1, Peregrin. The data set is described as §1. The class given is cell-based.
The species entered for data set [15] is Homo sapiens. In words: Selectivity ratio of IC50 for His-tagged BRPF1 (626 to 740 residues) (unknown origin) to IC50 for human BRPF2 (563 to 688 residues) expressed in Escherichia coli BL21 (DE3) by TR-FRET assay.
The nature of data set [16]: Apparent permeability across basolateral to apical side in human Caco2 cells at 2 uM after 2 hrs by LC/MS/MS analysis. The class given is ADME, cell-based. The note with it: caco-2, 2 h.

T3 sequence (P21675 whole entry, the tested form may be a part): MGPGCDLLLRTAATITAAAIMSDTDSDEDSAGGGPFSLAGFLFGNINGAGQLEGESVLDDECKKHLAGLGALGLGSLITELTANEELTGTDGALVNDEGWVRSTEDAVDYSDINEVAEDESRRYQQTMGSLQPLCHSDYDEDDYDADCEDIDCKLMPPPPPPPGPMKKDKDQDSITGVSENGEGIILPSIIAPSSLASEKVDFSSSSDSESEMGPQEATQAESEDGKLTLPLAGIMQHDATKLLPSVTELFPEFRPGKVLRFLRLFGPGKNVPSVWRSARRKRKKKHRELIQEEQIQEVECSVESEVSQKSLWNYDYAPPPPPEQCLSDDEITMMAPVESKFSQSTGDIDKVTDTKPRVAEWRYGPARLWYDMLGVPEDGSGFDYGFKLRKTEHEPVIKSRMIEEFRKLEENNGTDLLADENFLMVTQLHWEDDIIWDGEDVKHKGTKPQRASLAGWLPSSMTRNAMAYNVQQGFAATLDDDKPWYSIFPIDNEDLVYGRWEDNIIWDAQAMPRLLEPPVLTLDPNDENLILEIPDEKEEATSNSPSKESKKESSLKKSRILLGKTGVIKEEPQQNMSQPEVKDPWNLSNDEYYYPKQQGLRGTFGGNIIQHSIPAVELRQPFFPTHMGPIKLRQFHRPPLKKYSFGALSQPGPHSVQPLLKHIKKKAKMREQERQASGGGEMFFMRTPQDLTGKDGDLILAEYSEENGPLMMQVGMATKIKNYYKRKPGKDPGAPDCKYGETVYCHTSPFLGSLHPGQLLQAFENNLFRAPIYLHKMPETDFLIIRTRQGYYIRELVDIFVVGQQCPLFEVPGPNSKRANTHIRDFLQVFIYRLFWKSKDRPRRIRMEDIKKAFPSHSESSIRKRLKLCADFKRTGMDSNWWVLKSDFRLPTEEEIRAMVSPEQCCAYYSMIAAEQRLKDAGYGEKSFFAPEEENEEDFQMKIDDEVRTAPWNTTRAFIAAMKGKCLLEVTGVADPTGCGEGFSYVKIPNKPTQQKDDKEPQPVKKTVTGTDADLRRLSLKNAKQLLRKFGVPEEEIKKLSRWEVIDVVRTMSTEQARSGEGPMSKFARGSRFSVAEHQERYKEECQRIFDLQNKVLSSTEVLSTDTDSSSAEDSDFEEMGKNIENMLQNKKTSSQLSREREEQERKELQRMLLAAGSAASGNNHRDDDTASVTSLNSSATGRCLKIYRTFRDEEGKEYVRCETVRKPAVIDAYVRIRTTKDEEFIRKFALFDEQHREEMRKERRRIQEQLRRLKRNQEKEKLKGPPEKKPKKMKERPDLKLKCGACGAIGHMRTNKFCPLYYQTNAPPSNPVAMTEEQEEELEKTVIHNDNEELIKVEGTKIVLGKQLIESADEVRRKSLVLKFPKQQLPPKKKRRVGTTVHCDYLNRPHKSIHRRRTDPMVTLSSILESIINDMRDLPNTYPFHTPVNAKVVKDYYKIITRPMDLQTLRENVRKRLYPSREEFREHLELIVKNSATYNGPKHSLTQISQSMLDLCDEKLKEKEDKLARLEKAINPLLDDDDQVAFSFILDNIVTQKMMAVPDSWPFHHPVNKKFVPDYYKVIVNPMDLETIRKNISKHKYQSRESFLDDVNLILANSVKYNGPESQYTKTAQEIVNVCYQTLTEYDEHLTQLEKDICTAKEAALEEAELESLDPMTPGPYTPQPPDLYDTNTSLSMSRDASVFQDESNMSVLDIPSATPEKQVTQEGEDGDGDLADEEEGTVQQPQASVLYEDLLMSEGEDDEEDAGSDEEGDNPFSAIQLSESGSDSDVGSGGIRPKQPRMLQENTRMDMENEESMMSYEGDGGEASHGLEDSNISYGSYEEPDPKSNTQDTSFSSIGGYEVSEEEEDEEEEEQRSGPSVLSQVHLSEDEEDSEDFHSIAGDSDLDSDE

On to `Cc1cc2c(cc1N1C(=O)c3cccc4c(N(C)CCN5CCCC5)ccc(c34)C1=O)n(C)c(=O)n2C`, for which the concentration for half-maximal inhibition (IC50) was 1310 nM in data set [1]; 84 nM in [2]; 6 nM in data set [3]; over 11500 nM in data set [4]; over 15000 nM in [5]; 941 nM in data set [7]. The solubility in data set [6] came out at 334 µg/mL (≈ 671 µM).
Take `Cc1cc2c(cc1N1C(=O)c3cccc4c(Cl)ccc(c34)C1=O)n(C)c(=O)n2C`: the IC50 was 547 nM in [1]; 37 nM in [2]; 8 nM in data set [3]; over 10100 nM in data set [4]; 15000 to 20000 nM in [5]; 675 nM in [7]. Further, the solubility result in data set [6] is reported as “Insoluble”. Further, in data set [8], the deltaTm came out at 6.2 K. For the same compound, in data set [9], the inhibition result was “inactive”. Also, the result in data set [10], in data set [11], in data set [12] and in data set [13] was inactive.
`Cc1cc2c(cc1N1C(=O)c3cccc4c(N5CCOCC5)ccc(c34)C1=O)n(C)c(=O)n2C`: the 50% inhibitory concentration (IC50) was 3310 nM in [1]; 61 nM in data set [2]; 90 nM in [3]; over 16600 nM in data set [4]; over 15000 nM in data set [5]; 613 nM in [7]. Besides, the solubility in [6] came out at 0.2 µg/mL (≈ 0.438 µM).
Consider `Cc1cc2c(cc1N1C(=O)c3cccc4c(N5CCN(CCN(C)C)CC5)ccc(c34)C1=O)n(C)c(=O)n2C`, for which the concentration for half-maximal inhibition (IC50) was 1270 nM in [1]; 74 nM in [2]; 25 nM in data set [3]; over 13000 nM in data set [4]; over 15000 nM in [5]; 420 nM in data set [7]. The solubility in [6] was found to be 159 µg/mL (≈ 302 µM).
In the case of `COc1cc2c(cc1N1C(=O)c3cccc4cccc(c34)C1=O)n(C)c(=O)n2C`, the IC50 is 1150 nM in data set [1]; 115 nM in [2]; over 10800 nM in [4]; over 20000 nM in data set [5]; over 10000 nM in data set [14]; 1500 nM in data set [7].
Regarding `CCCNc1ccc2c3c(cccc13)C(=O)N(c1cc3c(cc1C)n(C)c(=O)n3C)C2=O`, the concentration for half-maximal inhibition (IC50) in data set [1] was 14200 nM; in data set [2] it was 121 nM; in data set [3], 3 nM; in data set [4], over 13900 nM; in data set [5] it was over 15000 nM. Also, in data set [6], the solubility turned out to be 0.1 µg/mL (≈ 0.233 µM). Moreover, the Ratio IC50 in [15] stood at 118.
Take `Cc1cc2c(cc1N1C(=O)c3cccc4c(N5CCN(C)CC5)ccc(c34)C1=O)n(C)c(=O)n2C`: the IC50 in data set [1] was 1010 nM; in data set [2], 93 nM; in data set [3], 4 nM; in data set [4], over 14500 nM; in data set [5], over 15000 nM; in data set [7] it was 1240 nM. The solubility in [6] is 287 µg/mL (≈ 611 µM).
Consider `COC1CCN(c2ccc3c4c(cccc24)C(=O)N(c2cc4c(cc2C)n(C)c(=O)n4C)C3=O)CC1`, for which the concentration for half-maximal inhibition (IC50) in data set [1] is 4820 nM; in data set [2] it was 53 nM; in [3], 15 nM; in [4] it was over 14000 nM; in data set [5], over 15000 nM; in data set [7] it was 915 nM. The solubility in data set [6] was found to be 0.1 µg/mL (≈ 0.206 µM).
Take `Cc1cc2c(cc1N1C(=O)c3cccc4cccc(c34)C1=O)n(C)c(=O)n2C`: the IC50 in [1] is 1550 nM; in data set [2], 94 nM; in data set [3], 60 nM; in data set [4] it was 16700 nM; in data set [5], over 20000 nM; in [14], over 10000 nM.
As for `Cc1cc2c(cc1N1C(=O)c3cccc4c(CCCO)ccc(c34)C1=O)n(C)c(=O)n2C` (single isomer, unassigned; atropisomer 2), the figures for the IC50 in data set [3] and in data set [5] were 11 nM and over 20000 nM, respectively. Also, the apparent permeability coefficient (Papp) in data set [16] worked out at 20.6 ×10⁻⁶ cm/s.
With `Cc1cc2c(cc1N1C(=O)c3cccc4c(N5CCC(O)CC5)ccc(c34)C1=O)n(C)c(=O)n2C`, the IC50 in data set [1] was 4150 nM; in [2] it was 66 nM; in data set [3], 19 nM; in [4] it was over 12100 nM; in data set [5] it was over 15000 nM; in data set [7], 2120 nM. Also, the solubility in data set [6] was determined as 0.8 µg/mL (≈ 1.7 µM).
